Laboratory results: PMC10419174, “WR1065 conjugated to thiol-PEG polymers as novel anticancer prodrugs: broad spectrum efficacy, synergism, and drug resistance reversal” (Frontiers in Oncology, 2023)
Like-named read-outs stand apart in the source and are kept apart here.

Tests used:
[1] = tested on: Malignant pleural mesothelioma HMESO1 cells; settings: for Fold increase in efficacy: drug alone ÷ drug in 4SP65-DDP combination
Protocol: The percentage of growth inhibition was calculated as follows: […]

[2] = Prodrug stability in culture medium with alamarBlue, cell free, 72 h; format: in vitro ADME; settings: standard growth medium, 37°C
Protocol: To determine drug stability in tissue culture medium for short-term treatments, 4SP65 was added to medium containing alamarBlue reagent in 96-well plates and incubated in the absence of cells at 37°C for 72 h. After this incubation period, wells with medium containing alamarBlue alone or both alamarBlue and 4SP65 were assessed for fluorescence readings using a Tecan Infinite 200 PRO plate reader (San Jose, CA, USA).

Strain-1 NHMECs (M99005) = experiment: NHMEC growth, trypan blue exclusion, 48-h treatment; format: cell-based, human
Source text: Normal human mammary epithelial cell (NHMEC) strains used to assess potential cytotoxicity of 4SP65 and 1LP65 were established from reduction mammoplasty tissue from a healthy donor (M99005 or ‘Strain-1’) ([53]) or purchased from ATCC (Manassas, VA, USA; batch#70043304 or ‘Strain-2’) or Cell Applications (San Diego, CA, USA; lot#1669 or ‘Strain-3’). Human cancer cell lines including HCC38, MDA-MB-231, A549, National Cancer Institute (NCI)-H460, NCI-H1437, NCI-H1975, DU145, LNCaP, PC3, PANC1, SKOV3, and HL60, which were free of Mycoplasma, were purchased from ATCC. HMESO1, PPMMill, and TOV21G cells, obtained from Dr. Brian Cunniff, were verified to be Mycoplasma negative using the LookOut® Mycoplasma PCR Detection Kit (Sigma-Aldrich) and to match previously annotated DNA fingerprints by the Vermont Integrative Genomics Resource DNA Analysis Facility.
To assess the effects of 4SP65 or 1LP65 on the growth of normal epithelium, experiments were performed using NHMEC strains from differing donors ([53]). Strain-1 NHMECs were plated at 5,000 cells/well in 24-well plates and allowed to reach 50% confluence before treatment with 0-150 µM 4SP65 for 48 h. Cell viability was determined using a hemocytometer and trypan blue exclusion assay. Two other NHMEC strains, exposed to 0-150 µM 4SP65 or 0-500 µM 1LP65 for 48 h, were handled in the same fashion except that viability of cells in 96-well plates was determined using CyQUANT dye. Due to the short life span of these NHMECs, standard curves were not generated and fluorescence readings were used as a surrogate marker of cell number ([54]).

[3] = 48-h treatment, amifostine ND = not definable up to 500 µM
[4] = drug alone, 48 h, 4SP65/cisplatin study

For 4-star-PEG-S-S-WR1065 [4SP65], the GI50 [1, 3] was 1300 ± 400 nM, the IC50 [1, 3] was 2900 ± 1000 nM and the LC99 [1, 3] was 7.9 ± 2.6 µM. The TGI [1, 3] was 2900 ± 800 nM, the “Fold increase in efficacy” value ([1]; at GI50) was 1.5 (NS) fold and the “Fold increase in efficacy” value ([1]; at IC50) was 1.1 (NS) fold. The “Fold increase in efficacy” value ([1]; at LC50, GoE = gain of effect) was 1.0 (NS) fold, the “Fold increase in efficacy” value ([1]; at LC99, GoE = gain of effect) was 1.1 (NS) fold and the “Fold increase in efficacy” value ([1]; at TGI) was 1.3 (NS) fold. For the same substance, the GI50 [1, 4] was 2000 ± 300 nM, the IC50 [1, 4] was 4700 ± 200 nM and the TGI [1, 4] was 4300 ± 200 nM. For the same substance, the LC99 ([1]; drug alone, 48 h, 4SP65/cisplatin study, ND = not definable, highest concentration in parentheses) was 12.4 ± 0.1 µM, the “change in fluorescence of alamarBlue reagent versus control wells” value [2] was “no significant change” and the IC50 (Strain-1 NHMECs (M99005); Strain-1 NHMECs) was over 150000 nM. The “growth enhancement compared to sham-exposed control cells” value (Strain-1 NHMECs (M99005); Strain-1 cells, 5 µM) was 336%, the “growth enhancement compared to sham-exposed control cells” value (Strain-1 NHMECs (M99005); Strain-1 cells, 15 µM) was 286% and the “growth as % of the control cell growth” value (Strain-1 NHMECs (M99005); Strain-1 cells, 50 µM) was 68%. For the same substance, the growth pattern (Strain-1 NHMECs (M99005); Strain-1 cells, 150 µM) was “growth enhancement”.
